Experiments:
[1] = molecular target: T1, human neutrophil cathepsin G (Homo sapiens, UniProt P08311); assay: Enzyme-catalyzed hydrolysis assay, cathepsin G (chromogenic substrate Suc-Ala-Ala-Pro-Phe-pNa); format: biochemical; details: 70 nM enzyme, 5 mM substrate, pH 7.4, 37° C., 30 minutes; read-out: IC50 (μM) CatG
T1 construct: human neutrophil cathepsin G (Athens Research and Technology); purchased Athens Research and Technology; host or cells: human neutrophils (from the enzyme's name)
T1 sequence (P08311 21-243 limits assumed): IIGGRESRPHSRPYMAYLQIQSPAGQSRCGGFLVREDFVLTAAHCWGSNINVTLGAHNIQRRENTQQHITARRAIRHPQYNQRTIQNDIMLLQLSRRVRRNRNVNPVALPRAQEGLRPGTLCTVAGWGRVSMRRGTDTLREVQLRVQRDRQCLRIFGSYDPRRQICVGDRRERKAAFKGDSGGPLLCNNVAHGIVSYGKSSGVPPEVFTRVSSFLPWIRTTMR
Experimental: (§1) Enzyme-catalyzed hydrolysis rates were measured spectrophotometrically using human neutrophil cathepsin G (Athens Research and Technology) or human skin chymase (Cortex Biochem), a chromogenic substrate (Suc-Ala-Ala-Pro-Phe-pNa) (Bachem) in aqueous buffer (100 mM Hepes, 500 mM NaCl, pH 7.4 for catG; 450 mM Tris, 1800 mM NaCl, pH 8.0 for chymase), and a microplate reader (Molecular Devices). […] Percent inhibition was calculated by comparing the initial reaction slopes of the samples without inhibitor to those with inhibitor. IC50 values were determined using a four parameter fit logistics model. The term “NT” indicates a compound that was not tested.

human skin chymase = molecular target: T2, human skin chymase (Homo sapiens, UniProt P23946); assay: Enzyme-catalyzed hydrolysis assay, chymase (chromogenic substrate Suc-Ala-Ala-Pro-Phe-pNa); format: biochemical; details: 10 nM enzyme, 0.7 mM substrate, pH 8.0, 37° C., 30 minutes
T2 construct: human skin chymase (Cortex Biochem); purchased Cortex Biochem; host or cells: human skin (from the enzyme's name)
T2 sequence (P23946 22-247): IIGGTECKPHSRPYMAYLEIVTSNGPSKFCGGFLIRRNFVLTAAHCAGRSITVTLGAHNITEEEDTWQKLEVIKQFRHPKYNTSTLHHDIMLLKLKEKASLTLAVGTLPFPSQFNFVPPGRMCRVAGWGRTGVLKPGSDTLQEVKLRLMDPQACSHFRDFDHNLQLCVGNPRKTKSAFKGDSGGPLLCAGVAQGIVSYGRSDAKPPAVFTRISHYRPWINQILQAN
Experimental: as §1

Work on CC1CCC(N(C)C(=O)c2cc3ccccc3cc2C(=O)C(c2cccc3ccccc23)P(=O)(O)O)CC1 (stereo not shown) [Compound 27, [2-[3-[[methyl(4-methylcyclohexyl)amino]carbonyl]-2-naphthalenyl]-1-(1-naphthalenyl)-2-oxoethyl]-phosphonic acid] yielded an IC50 [1] of 0.07 ± 0.01 µM and an IC50 (human skin chymase) of 0.0051 ± 0.0022 µM.

For O=C(c1cc2ccccc2cc1C(=O)N1CCC2(CC1)C(=O)NCN2c1ccccc1)C(c1cccc2ccccc12)P(=O)(O)O (stereo not shown) [Compound 8, [1-(1-naphthalenyl)-2-oxo-2-[3-[(4-oxo-1-phenyl-1,3,8-triazaspiro[4.5]dec-8-yl)carbonyl]-2-naphthalenyl]ethyl]-phosphonic acid], the IC50 [1] was 0.13 ± 0.01 µM and the IC50 (human skin chymase) was 0.0074 ± 0.0022 µM.

“[2-[3-[[[4-(1,1-dimethylethyl)cyclohexyl]methylamino]carbonyl]-2-naphthalenyl]-1-(1-naphthalenyl)-2-oxoethyl]-phosphonic acid [Compound 22]” was tested, and the IC50 [1] was 0.14 ± 0.04 µM and the IC50 (human skin chymase) was 0.009 ± 0.023 µM.

“[2-[3-[(cyclohexylmethylamino)carbonyl]-2-naphthalenyl]-1-(1-naphthalenyl)-2-oxoethyl]-phosphonic acid [Compound 17]” showed an IC50 [1] of 0.098 ± 0.026 µM and an IC50 (human skin chymase) of 0.0072 ± 0.0015 µM.

O=C(NC1CCN(C(=O)c2cc3ccccc3cc2C(=O)C(c2cccc3ccccc23)P(=O)(O)O)CC1)c1ccc2ccccc2c1 (stereo not shown) [Compound 34] was tested, and the IC50 [1] was 0.09 ± 0.04 µM and the IC50 (human skin chymase) was 0.007 ± 0.001 µM.

With “[2-[3-[[[1-[(2E)-3-(4-fluorophenyl)-1-oxo-2-propenyl]-3-pyrrolidinyl]methylamino]carbonyl]-2-naphthalenyl]-1-(1-naphthalenyl)-2-oxoethyl]-phosphonic acid [Compound 5]” the IC50 [1] was 0.072 ± 0.021 µM and the IC50 (human skin chymase) was 0.2 ± 0.4 µM.

Work on CN(CC12CC3CC(CC(C3)C1)C2)C(=O)c1cc2ccccc2cc1C(=O)C(c1cccc2ccccc12)P(=O)(O)O (stereo not shown) [Compound 28, [2-[1-[[methyl(tricyclo[3.3.1^3,7]dec-1-ylmethyl)amino]carbonyl]-2-naphthalenyl]-1-(1-naphthalenyl)-2-oxoethyl]-phosphonic acid] yielded an IC50 [1] of 0.4 ± 0.09 µM and an IC50 (human skin chymase) of 0.036 ± 0.011 µM.

Work on O=C(c1cc2ccccc2cc1C(=O)N1CCN(S(=O)(=O)c2c(Cl)nc3sccn23)CC1)C(c1cccc2ccccc12)P(=O)(O)O (stereo not shown) [Compound 42] yielded an IC50 [1] of 0.14 ± 0.03 µM.

O=C(c1cc2ccccc2cc1C(=O)N1CCN(C(=O)c2ccc3ccccc3c2)CC1)C(c1cccc2ccccc12)P(=O)(O)O (stereo not shown) [Compound 38] was tested, and the IC50 [1] was 0.78 ± 0.22 µM.

With O=C(NC1CCN(C(=O)c2ccc3ccccc3c2)CC1)c1cc2ccccc2cc1C(=O)C(c1cccc2ccccc12)P(=O)(O)O (stereo not shown) [Compound 30, [1-(1-naphthalenyl)-2-[3-[[[1-(2-naphthalenylcarbonyl)-4-piperidinyl]amino]carbonyl]-2-naphthalenyl]-2-oxoethyl]-phosphonic acid] the IC50 [1] was 0.59 ± 0.04 µM and the IC50 (human skin chymase) was 0.0158 ± 0.0008 µM.

CN(C(=O)c1ccccc1C(=O)C(c1cccc2ccccc12)P(=O)(O)O)C1CCN(C(=O)c2ccc3ccccc3c2)CC1 (stereo not shown) [Compound 31, [2-[2-[[methyl[1-(2-naphthalenylcarbonyl)-4-piperidinyl]amino]carbonyl]phenyl]-1-(1-naphthalenyl)-2-oxoethyl]-phosphonic acid] gave an IC50 [1] greater than 100 µM and an IC50 (human skin chymase) of 15 ± 0.67 µM.

For CN(C(=O)c1cc2ccccc2cc1C(=O)C(c1csc2ccc(Cl)cc12)P(=O)(O)O)C1CCN(C(=O)c2ccc3ccccc3c2)CC1 (stereo not shown) [Compound 33, [1-(5-chlorobenzo[b]thien-3-yl)-2-[3-[[methyl[1-(2-naphthalenylcarbonyl)-4-piperidinyl]amino]carbonyl]-2-naphthalenyl]-2-oxoethyl]-phosphonic acid], the IC50 [1] was 0.121 ± 0.007 µM and the IC50 (human skin chymase) was 0.001 µM.

With CN(C)c1ccc(C=CC(=O)N2CCC(N(C)C(=O)c3cc4ccccc4cc3C(=O)C(c3cccc4ccccc34)P(=O)(O)O)CC2)cc1 (stereo not shown) [Compound 13, [2-3-[[[1-[(2E)-3-[4-(dimethylamino)phenyl]-1-oxo-2-propenyl]-4-piperidinyl]methylamino]carbonyl]-2-naphthalenyl]-1-(1-naphthalenyl)-2-oxoethyl]-phosphonic acid] the IC50 [1] was 0.064 ± 0.008 µM and the IC50 (human skin chymase) was 0.004 µM.

With CN(C(=O)c1cc2ccccc2cc1C(=O)C(c1cccc2ccccc12)P(=O)(O)O)C1CC=C(c2ccccc2)CC1 (stereo not shown) [Compound 29, [2-[3-[[methyl(4-phenyl-3-cyclohexen-1-yl)amino]-carbonyl]-2-naphthalenyl]-1-(1-naphthalenyl)-2-oxoethyl]-phosphonic acid] the IC50 [1] was 0.15 ± 0.03 µM and the IC50 (human skin chymase) was 0.0082 ± 0.0028 µM.

For CN(C(=O)c1cc2ccccc2cc1C(=O)C(c1cccc2ccccc12)P(=O)(O)O)C1CCN(C(=O)/C=C/c2ccc(C(F)(F)F)cc2)CC1 (stereo not shown) [Compound 10, [2[3-[[methyl[1-[(2E)-1-oxo-3-[4-(trifluoromethyl)-phenyl]-2-propenyl]-4-piperidinyl]amino]carbonyl]-2-naphthalenyl]-1-(1-naphthalenyl)-2-oxoethyl]-phosphonic acid], the IC50 [1] was 0.053 ± 0.016 µM and the IC50 (human skin chymase) was 0.014 ± 0.006 µM.

CN(C(=O)c1cc2ccccc2cc1C(=O)C(c1cccc2ccccc12)P(=O)(O)O)C1CCN(C(=O)c2ccc3cc(Br)ccc3c2)CC1 (stereo not shown) [Compound 4] gave an IC50 [1] of 0.09 ± 0.02 µM and an IC50 (human skin chymase) of 0.0039 ± 0.0001 µM.

Work on CC(C)C(=O)N1CCC(N(C)C(=O)c2cc3ccccc3cc2C(=O)C(c2cccc3ccccc23)P(=O)(O)O)CC1 (stereo not shown) [Compound 20, [2-[3-[[methyl[1-(2-methyl-1-oxopropyl)-4-piperidinyl]amino]carbonyl]-2-naphthalenyl]-1-(1-naphthalenyl)-2-oxoethyl]-phosphonic acid] yielded an IC50 [1] of 0.09 ± 0.023 µM and an IC50 (human skin chymase) of 0.004 ± 0.002 µM.

COc1ccc(C2CCN(C(=O)c3cc4ccccc4cc3C(=O)C(c3cccc4ccccc34)P(=O)(O)O)CC2)cc1 (stereo not shown) [Compound 12, [2-[3-[[4-(4-methoxyphenyl)-1-piperidinyl]carbonyl]-2-naphthalenyl]-1-(1-naphthalenyl)-2-oxoethyl]-phosphonic acid] showed an IC50 [1] of 0.179 ± 0.038 µM and an IC50 (human skin chymase) of 0.0073 ± 0.0017 µM.

In the case of CN(C(=O)c1cc2ccccc2cc1C(=O)C(c1cccc2ccccc12)P(=O)(O)O)C1CCN(C(=O)c2ccccc2)CC1 (stereo not shown) [Compound 15], the IC50 (human skin chymase) is reported as 0.017 ± 0.005 µM.

With COc1ccc(N2CCN(C(=O)c3cc4ccccc4cc3C(=O)C(c3cccc4ccccc34)P(=O)(O)O)CC2)cc1 (stereo not shown) [Compound 40] the IC50 [1] was 0.17 ± 0.05 µM.

O=C(c1cc2ccccc2cc1C(=O)N1CCC(c2ccccc2)CC1)C(c1cccc2ccccc12)P(=O)(O)O (stereo not shown) [Compound 7, [1-(1-naphthalenyl)-2-oxo-2-[3-[(4-phenyl-1-piperidinyl)carbonyl]-2-naphthalenyl]ethyl]-phosphonic acid] was tested, and the IC50 [1] was 0.21 ± 0.05 µM and the IC50 (human skin chymase) was 0.008 ± 0.022 µM.

Compound CN(C(=O)c1cc2ccccc2cc1C(=O)C(c1cccc2ccccc12)P(C)(=O)O)C1CCN(C(=O)c2ccc3ccccc3c2)CC1 (stereo not shown) [Compound 32, methyl[2-[3-[[methyl[1-(2-naphthalenylcarbonyl)-4-piperidinyl]amino]carbonyl]-2-naphthalenyl]-1-(1-naphthalenyl)-2-oxoethyl]-phosphinic acid] has an IC50 [1] of 0.86 ± 0.03 µM and an IC50 (human skin chymase) of 0.31 µM.

“[2-[3-[[[1-[(6-methoxy-2-naphthalenyl)carbonyl]-3-pyrrolidinyl]methylamino]carbonyl]-2-naphthalenyl]-1-(1-naphthalenyl)-2-oxoethyl]-phosphonic acid [Compound 3]” was tested, and the IC50 [1] was 0.068 ± 0.019 µM and the IC50 (human skin chymase) was 0.072 ± 0.008 µM.

Work on COc1cccc(C2CCN(C(=O)c3cc4ccccc4cc3C(=O)C(c3cccc4ccccc34)P(=O)(O)O)CC2)c1 (stereo not shown) [Compound 14, [2-[3-[[4-(3-methoxyphenyl)-1-piperidinyl]carbonyl]-2-naphthalenyl]-1-(1-naphthalenyl)-2-oxoethyl]-phosphonic acid] yielded an IC50 [1] of 0.23 ± 0.03 µM and an IC50 (human skin chymase) of 0.01 ± 0.001 µM.

Work on O=C(c1cc2ccccc2cc1C(=O)N1CCN(C(=O)Cc2ccc3ccccc3c2)CC1)C(c1cccc2ccccc12)P(=O)(O)O (stereo not shown) [Compound 37] yielded an IC50 [1] of 0.74 ± 0.29 µM.

Work on “[2-[3-[[(1-acetyl-4-piperidinyl)methylamino]carbonyl]-2-naphthalenyl]-1-(1-naphthalenyl)-2-oxoethyl]-phosphonic acid [Compound 26]” yielded an IC50 [1] of 0.096 ± 0.018 µM and an IC50 (human skin chymase) of 0.015 ± 0.001 µM.

Compound O=C(c1cc2ccccc2cc1C(=O)N1CCC(c2ccccc2)C1)C(c1cccc2ccccc12)P(=O)(O)O (stereo not shown) [Compound 19, [1-(1-naphthalenyl)-2-oxo-2-[3-[(3-phenyl-1-pyrrolidinyl)carbonyl]-2-naphthalenyl]ethyl]-phosphonic acid] has an IC50 [1] of 0.238 ± 0.03 µM and an IC50 (human skin chymase) of 0.022 ± 0.062 µM.

O=C(NCc1ccc(S(=O)(=O)N2CCN(C(=O)c3cc4ccccc4cc3C(=O)C(c3cccc4ccccc34)P(=O)(O)O)CC2)s1)c1ccccc1 (stereo not shown) [Compound 41] showed an IC50 [1] of 0.31 µM.

In the case of O=C(c1cc2ccccc2cc1C(=O)N1CCN(S(=O)(=O)c2ccc3ccccc3c2)CC1)C(c1cccc2ccccc12)P(=O)(O)O (stereo not shown) [Compound 35], the IC50 [1] is reported as 0.56 ± 0.18 µM.

For O=C(c1cc2ccccc2cc1C(=O)N1CCN(C(=O)Nc2ccc3ccccc3c2)CC1)C(c1cccc2ccccc12)P(=O)(O)O (stereo not shown) [Compound 43], the IC50 [1] was 0.95 ± 0.21 µM.

Source: patent US8703957B2 (Janssen Pharmaceutica NV, priority 2001, dated 2014)
